Assay results as given in PMC11513924, “Addressing the Intracellular Vestibule of the Plasmodial Lactate Transporter PfFNT by p-Substituted Inhibitors Amplifies In Vitro Activity” (Journal of Medicinal Chemistry, 2024).
Like-named read-outs stand apart in the source and are kept apart here.

Tests used:
PfFNT [1] = molecular target: T1, PfFNT (Plasmodium falciparum, UniProt O77389); assay: Fluorescence cross-correlation spectroscopy (FCCS) competition binding to solubilized PfFNT-GFP
T1 construct: expressed in transfected cells; membranes solubilized
T1 sequence (O77389 1-309): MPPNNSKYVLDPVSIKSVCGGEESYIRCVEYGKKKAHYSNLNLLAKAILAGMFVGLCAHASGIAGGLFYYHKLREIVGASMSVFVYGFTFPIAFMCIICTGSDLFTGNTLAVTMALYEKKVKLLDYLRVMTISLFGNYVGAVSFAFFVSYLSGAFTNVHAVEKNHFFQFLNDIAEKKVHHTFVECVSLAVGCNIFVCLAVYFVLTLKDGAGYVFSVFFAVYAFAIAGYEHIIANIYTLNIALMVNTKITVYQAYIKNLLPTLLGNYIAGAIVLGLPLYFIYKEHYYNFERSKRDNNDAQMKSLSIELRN
Description: FCCS measurements were conducted and analyzed as before.[20],[30] Briefly, membranes of stably transfected cells expressing PfFNT with a C-terminal GFP (green) were solubilized. BH267.meta 2 fused with DY647 (red) was used as a tracer to monitor the binding of compounds in a competition assay. Assays were done in […] glass bottom plates (cat. no. PS96B-G175, SWISSCI, Switzerland) using a plate reader (Insight, Evotec Technologies, Germany) fitted with a U-Apo300 40× water immersion lens, NA 1.15 (Olympus, Japan). Excitation was done with an argon-ion laser (488 nm) and a helium–neon laser (633 nm). Fluorescence fluctuations were recorded 10 times for 5 s per sample and fitted using FCS+ plus Analyze (PerkinElmer software). Initially, IC50 values were determined from the concentration of the dual labeled complex titrated against a competitor in a range of 100 pM to 100 μM (Figure S1). Then, Ki values were calculated using the Cheng Prusoff equation[31] based on the previously determined KD value for the BH267.meta-DY647 tracer.[20]

PfFNT [2] = molecular target: T1, PfFNT; assay: Yeast-based PfFNT 14C-lactate transport assay; assay type: cell-based
Description: Lactate transport functionality of PfFNT was assayed as described before.[4] Briefly, Saccharomyces cerevisiae W303-1A jen1Δady2Δcells[32] (MATa, can1-100, ade2-loc, his3-11-15, leu2-3,-112, trp1-1-1, ura3-1, jen1::kanMX4, ady2::hphMX4) kindly provided by M. Casal expressing PfFNT was grown at 29 °C to an OD600 of 1 (±0.1). Harvested cells were resuspended to an OD600 of 50 (±5) in 50 mM HEPES/Tris, pH 6.8 (±0.1). 10–15 min prior to the assay, 80 μL of yeast suspension were added to 1 μL of DMSO with or without inhibitor in a 1.5 mL reaction tube at 18 °C. Twenty μL of L-lactate solution spiked with [1-^14C]-L-lactate (Hartmann Analytic) was added yielding a 1 mM inward gradient with 0.04 μCi label. Transport was stopped after 30 s by abrupt dilution with 1 mL of ice-cold water, vacuum filtration via GF/C filter membranes (Whatman), and washing with 7 mL of ice-cold water. The radio label was analyzed by liquid scintillation counting in 3 mL of scintillation cocktail (Rotiszint eco plus, Carl Roth) using a Packard TriCarb 2900 TR (PerkinElmer Inc.).
Transport assays in yeast were done in triplicate biological replicates. At least nine technical replicates were measured around the IC50 value, concentrations with no or full inhibition were determined from at least three technical replicates. EC50-values were determined from 2 to 4 biological replicates. IC50 and EC50 curves were fitted by the Hill equation with variable slope (Graph Pad Prism 10). Error bars denote ± SEM (for n ≥ 3) or ± range (for n = 2). For the EC50-value of 7a the error of the fitting of the curve is given. Cytotoxicity was determined from biological triplicates; error is shown as SEM.

[3] = tested on: Plasmodium falciparum 3D7 parasites; assay: P. falciparum 3D7 culture growth assay in erythrocytes (in vitro activity); assay type: cell-based; settings: for EC50 / activity at 0.05 µM / activity at 0.1 µM / activity at 0.2 µM: Plasmodium falciparum, 3D7, Erythrocyte, 48 h; for EC50: read-out: EC50 (in vitro, 3D7); for activity at 0.05 µM: 50 nM compound, read-out: % Growth at 50 nM (in vitro, 3D7); for activity at 0.05 µM / activity at 0.1 µM / activity at 0.2 µM: % of untreated control; for activity at 0.1 µM: 100 nM compound, read-out: % Growth at 100 nM (in vitro, 3D7); for activity at 0.2 µM: 200 nM compound, read-out: % Growth at 200 nM (in vitro, 3D7)
Description: The parasitemia was measured using an LSR II FACS (BD Biosciences) as described.[34],[35] Growth was assessed as % of untreated control. EC50 curves were plotted using Graph Pad Prism.
Transport assays in yeast were done in triplicate biological replicates. At least nine technical replicates were measured around the IC50 value, concentrations with no or full inhibition were determined from at least three technical replicates. […] IC50 and EC50 curves were fitted by the Hill equation with variable slope (Graph Pad Prism 10). Error bars denote ± SEM (for n ≥ 3) or ± range (for n = 2). […] Cytotoxicity was determined from biological triplicates; error is shown as SEM.

[4] = 14C-lactate transport, PfFNT wild type, read-out: IC50 (transport, yeast)

Compound	Ki (PfFNT [1]) [µM]	IC50 (PfFNT [2]; [4]) [µM]	EC50 ([3]; cultures in erythrocytes) [µM]	Ki (PfFNT [1]; competition against BH267.meta-DY647 tracer, Cheng Prusoff, read-out: Ki (FCCS, protein)) [µM]	IC50 (PfFNT [2]) [µM]	EC50 [3] [µM]	activity at 0.05 µM [3] [%]	activity at 0.1 µM [3] [%]	activity at 0.2 µM [3] [%]	times lower in vitro activity (vs 7e) ([3]; 3D7)
O=C(/C=C(\O)C(F)(F)c1ccccc1)c1cccnc1 [3a, 4,4-Difluoro-3-hydroxy-4-phenyl-1-(pyridin-3-yl)but-2-en-1-one]	5.84 ± 0.96	1.14 ± 0.2	36.6 ± 11.1	–	–	–	–	–	–	–
O=C(/C=C(\O)C(F)(F)C(F)(F)C(F)(F)F)c1cccnc1 [3b, 4,4,5,5,6,6,6-Heptafluoro-3-hydroxy-1-(pyridin-3-yl)hex-2-en-1-on]	–	–	–	0.03 ± 0.003	0.34 ± 0.05	1.17 ± 0.03	–	–	–	–
COC(F)(F)C(F)(F)/C(O)=C/C(=O)c1cccnc1 [3c, 4,4,5,5-Tetrafluoro-3-hydroxy-5-methoxy-1-(pyridin-3-yl)pent-2-en-1-one]	0.093 ± 0.002	0.31 ± 0.01	3.39 ± 0.01	–	–	–	–	–	–	–
O=C(/C=C(\O)C(F)(F)C(F)(F)Cl)c1cccnc1 [3d, 5-Chloro-4,4,5,5-tetrafluoro-3-hydroxy-1-(pyridin-3-yl)pent-2-en-1-one]	0.037 ± 0.021	0.18 ± 0.03	0.35 ± 0.03	–	–	–	–	–	–	–
FC(F)(F)C(F)(F)c1nc(-c2cccnc2)n[nH]1 [4a, 3-[5-(1,1,2,2,2-Pentafluoroethyl)-1H-1,2,4-triazol-3-yl]pyridine]	1.61 ± 0.298	8.44 ± 1.85	–	–	–	–	–	–	–	–
FC(F)(F)C(F)(F)c1cc(-c2cccnc2)n[nH]1 [4b, 3-[5-(1,1,2,2,2-Pentafluoroethyl)-1H-pyrazol-3-yl]pyridine]	> 80	~1000	–	–	–	–	–	–	–	–
O=C(/C=C(\O)C(F)(F)C(F)(F)F)c1ccco1 [5a, 4,4,5,5,5-Pentafluoro-1-(furan-2-yl)-3-hydroxypent-2-en-1-one]	0.037 ± 0.005	0.17 ± 0.06	1.98 ± 0.04	–	–	–	–	–	–	–
O=C(/C=C(\O)C(F)(F)C(F)(F)F)c1ccoc1 [5b, 4,4,5,5,5-Pentafluoro-1-(furan-3-yl)-3-hydroxypent-2-en-1-one]	0.072 ± 0.006	0.1 ± 0.01	0.86 ± 0.08	–	–	–	–	–	–	–
O=C(/C=C(\O)C(F)(F)C(F)(F)F)c1cccs1 [5c, 4,4,5,5,5-Pentafluoro-3-hydroxy-1-(thiophen-2-yl)pent-2-en-1-one]	0.045 ± 0.025	0.11 ± 0.01	1.92 ± 0.17	–	–	–	–	–	–	–
O=C(/C=C(\O)C(F)(F)C(F)(F)F)c1ccsc1 [5d, 4,4,5,5,5-Pentafluoro-3-hydroxy-1-(thiophen-3-yl)pent-2-en-1-one]	0.085 ± 0.004	0.15 ± 0.01	1.87 ± 0.15	–	–	–	–	–	–	–
O=C(/C=C(\O)C(F)(F)C(F)(F)F)c1ccc(NCc2ccccc2)nc1 [7a, 1-[6-(Benzylamino)pyridin-3-yl]-4,4,5,5,5-pentafluoro-3-hydroxypent-2-en-1-one]	0.032 ± 0.015	0.51 ± 0.15	0.0779	–	–	–	71	32	14	–
Nc1ccc(C(=O)/C=C(\O)C(F)(F)C(F)(F)F)cn1 [7b, 1-(6-Aminopyridin-3-yl)-4,4,5,5,5-pentafluoro-3-hydroxypent-2-en-1-one]	0.031 ± 0.006	0.19 ± 0.02	–	–	–	–	79	65	29	at least 3 times
CNc1ccc(C(=O)/C=C(\O)C(F)(F)C(F)(F)F)cn1 [7c, 4,4,5,5,5-Pentafluoro-3-hydroxy-1-(6-(methylamino)pyridin-3-yl)pent-2-en-1-one]	0.036 ± 0.012	0.13 ± 0.02	–	–	–	–	103	97	85	–
CCNc1ccc(C(=O)/C=C(\O)C(F)(F)C(F)(F)F)cn1 [7d, 1-(6-(Ethylamino)pyridin-3-yl)-4,4,5,5,5-pentafluoro-3-hydroxypent-2-en-1-one]	0.021 ± 0.005	0.12 ± 0.01	–	–	–	–	45	13	6	–
CCCCNc1ccc(C(=O)/C=C(\O)C(F)(F)C(F)(F)F)cn1 [7f, 1-(6-(Butylamino)pyridin-3-yl)-4,4,5,5,5-pentafluoro-3-hydroxypent-2-en-1-one]	0.027 ± 0.004	0.33 ± 0.01	–	–	–	–	25	15	10	–
CCCCCNc1ccc(C(=O)/C=C(\O)C(F)(F)C(F)(F)F)cn1 [7g, 4,4,5,5,5-Pentafluoro-3-hydroxy-1-(6-(pentylamino)pyridin-3-yl)pent-2-en-1-one]	0.013 ± 0.001	0.39 ± 0.03	–	–	–	–	37	12	6	–
COCCCNc1ccc(C(=O)/C=C(\O)C(F)(F)C(F)(F)F)cn1 [7h, 4,4,5,5,5-Pentafluoro-3-hydroxy-1-(6-((3-methoxypropyl)amino)pyridin-3-yl)pent-2-en-1-one]	0.055 ± 0.006	0.16 ± 0.01	–	–	–	–	65	–	17	–
O=C(/C=C(\O)C(F)(F)C(F)(F)F)c1ccc(NCC(F)(F)F)nc1 [7i, 4,4,5,5,5-Pentafluoro-3-hydroxy-1-(6-((2,2,2-trifluoroethyl)amino)pyridin-3-yl)pent-2-en-1-one]	0.024 ± 0.006	0.21 ± 0.02	–	–	–	–	71	38	9	–
CC(C)CNc1ccc(C(=O)/C=C(\O)C(F)(F)C(F)(F)F)cn1 [7j, 4,4,5,5,5-Pentafluoro-3-hydroxy-1-(6-(isobutylamino)pyridin-3-yl)pent-2-en-1-one]	0.03 ± 0.003	0.28 ± 0.03	–	–	–	–	61	17	11	–
O=C(/C=C(\O)C(F)(F)C(F)(F)F)c1ccc(N2CCNCC2)nc1 [7t, 4,4,5,5,5-Pentafluoro-3-hydroxy-1-[6-(piperazin-1-yl)pyridin-3-yl]pent-2-en-1-one]	0.858 ± 0.129	17.3 ± 6.5	–	–	–	–	–	–	–	–
